The source of these data is patent US5023269A, “3-aryloxy-3-substituted propanamines” (Eli Lilly and Company, priority 1990, dated 1991).

Counter-ions that a name gives are not always drawn.

In one test the test system is serotonin (5HT) uptake. In words: Inhibition of 5HT uptake in vitro: synaptosomal uptake of 3H-serotonin in rat cortical synaptosomes. Type of test: biochemical, rat (male Sprague-Dawley). As to conditions: 50 nM 3H-5HT, 37° C., 5 min. The procedure:
(§1) This general procedure is set forth by Wong et al., in Drug Development Research 6:397-403 (1985).
(§2) Male Sprague-Dawley rats (110-150 g) from Harlan Industries (Cumberland, IN) were fed a Purina Chow ad libitum for at least 3 days before being used in the studies. Rats were killed by decapitation. Whole brains were removed and dissected. Cerebral cortex was homogenized in 9 volumes of a medium containing 0.32 M sucrose and 10 mM glucose. Crude synaptosomal preparations were isolated after differential centrifugation at 1,000 g for 10 min. and 17,000 g for 28 min. The final pellets were suspended in the same medium and kept in ice until use within the same day.
(§3) Synaptosomal uptake of ^3 H-serotonin(^3 H-5hydroxytryptamine, ^3 H-5HT) and ^14 C-l-norepinephrine (^14 C-NE) was determined as follows. Cortical synaptosomes (equivalent to 1 mg of protein) were incubated at 37° C. for 5 min in 1 ml of Krebs-bicarbonate medium containing also 10 mM glucose, 0.1 mM iproniazid, 1 mM ascorbic acid, 0.17 mM EDTA, 50 nM ^3 H-5HT and 100 nM ^14 C-NE The reaction mixture was immediately diluted with 2 ml of ice-chilled Krebs-bicarbonate buffer and filtered under vacuum with a cell harvester (Brandel, Gaithersburg, MD). Filters were rinsed twice with approximately 5 ml of ice-chilled 0.9% saline and were transferred to a counting vial containing 10 ml of scintillation fluid (PCS, Amersham, Arlington Heights, IL). Radioactivity was measured by a liquid scintillation spectrophotometer. Accumulation of ^3 H-5HT and ^14 C-NE at 4° C. represented the background and was subtracted from all samples.

Test [1] deals with norepinephrine (NE) uptake. In words: Inhibition of norepinephrine uptake in vitro: synaptosomal uptake of 14C-l-norepinephrine in rat cortical synaptosomes. Type of test: biochemical, rat (male Sprague-Dawley). As to conditions: 100 nM 14C-NE, 37° C., 5 min. As for the experimental part:
as §1, §2, §3

In the test with serotonin (5HT) uptake, `CN(C)CCC(Oc1ccc(C(F)(F)F)cc1)c1ccco1` (stereo not shown) [Example 21, N,N-Dimethyl-3-[4-(trifluoromethyl)phenoxy]-3-(2-furanyl)propanamine] had an IC50 of 140 nM. Further, the “percent inhibition at 1000 nM, NE (number in parentheses)” value (from here on “percent inhibition at 1000 nM, NE”) in test [1] stood at 14%.

`COc1ccc(OC(CCN(C)C)c2cccs2)cc1` (stereo not shown) [Example 29, N,N-Dimethyl-3-(4-methoxyphenoxy)-3-(2thienyl)propanamine oxalate] had an IC50 in the test on serotonin (5HT) uptake of 410 nM. The “percent inhibition at 1000 nM, NE” value in test [1] is 18%. As to `CNCCC(Oc1ccc(C(F)(F)F)cc1)c1cccs1` (stereo not shown) [Example 20, N-Methyl-3-[4-(trifluoromethyl)phenoxy-3-(2-thienyl)propanamine oxalate], the concentration for half-maximal inhibition (IC50) with serotonin (5HT) uptake is 46 nM. Further, in test [1], the “percent inhibition at 1000 nM, NE” value is 52%. For `CNCCC(Oc1ccc(Cl)c2ccccc12)c1cccs1` (stereo not shown) [Example 11, N-Methyl-3-(4-chloro-1-naphthalenyloxy)-3-(2-thienyl)propanamine oxalate], the results for the IC50 (in the test with serotonin (5HT) uptake; in test [1]) were 49 nM and 77 nM, respectively. The like results for `CNCCC(Oc1ccc(C(F)(F)F)cc1)C1CCCCC1` (stereo not shown) [Example 34, N-Methyl-3-[4-(trifluoromethyl)phenoxy]-3(cyclohexyl)propanamine oxalate] were, in that order, 79 nM and 285 nM. The like results for `CN(C)CCC(Oc1cccc2ccccc12)c1ccc(Cl)s1` (stereo not shown) [Example 5, N,N-Dimethyl-3-(1-naphthalenyloxy)-3-(5-chloro-2-thienyl)propanamine oxalate] were, in that order, 62 nM and 725 nM.

In the case of `CN(C)CCC(Oc1cccc2ccccc12)c1ccsc1` (stereo not shown) [Example 8, N,N-Dimethyl-3-(1-naphthalenyloxy)-3-(3-thienyl)propanamine oxalate], the IC50 in the test on serotonin (5HT) uptake turned out to be 25 nM; in test [1], 630 nM.

Consider `CNCCC(Oc1ccc(C)cc1)c1cccs1` (stereo not shown) [Example 26, N-Methyl-3-(4-methylphenoxy)-3-(2-thienyl)propanamine oxalate], for which the IC50 came to 112 nM in the test on serotonin (5HT) uptake and 22 nM in test [1]. The like results for `CNCCC(Oc1ccc(C(F)(F)F)cc1)c1ccco1` (stereo not shown) [Example 23, N-Methyl-3-[4-(trifluoromethyl)phenoxy]-3-(2-furanyl)propanamine oxalate] were, in that order, 54 nM and 1100 nM. In the same order, the values of `CNCCC(Oc1ccc(OC)cc1)c1cccs1` (stereo not shown) [Example 28, N-Methyl-3-(4-methoxyphenoxy)-3-(2-thienyl)propanamine oxalate] are 50 nM and 260 nM. Consider `CN(C)CCC(Oc1ccc(C(F)(F)F)cc1)C1CCCCC1` (stereo not shown) [Example 35, N,N-Dimethyl-3-[4-(trifluoromethyl)phenoxy]-3-(cyclohexyl)propanamine oxalate], for which, in the test with serotonin (5HT) uptake, the IC50 was determined as 260 nM. The “percent inhibition at 1000 nM, NE” value in test [1] came to 21%. With `Cc1ccc(C(CCN(C)C)Oc2cccc3ccccc23)s1` (stereo not shown) [Example 3, N,N-Dimethyl-3-(1-naphthalenyloxy)-3-(5-methyl-2-thienyl)propanamine oxalate], the results for the IC50 (in the test with serotonin (5HT) uptake; in test [1]) were 55 nM and 720 nM, respectively. In the test with serotonin (5HT) uptake, `Cc1ccc(OC(CCN(C)C)c2cccs2)c2ccccc12` (stereo not shown) [Example 12, N,N-Dimethyl-3-(4-methyl-1-naphthalenyloxy)-3-(2-thienyl)propanamine oxalate] yielded an IC50 of 58 nM. The “percent inhibition at 1000 nM, NE” value in test [1] is 40%.

In turn, `CN(C)CCC(Oc1ccc(Cl)c2ccccc12)c1cccs1` (stereo not shown) [Example 10, N,N-Dimethyl-3-(4-chloro-1-naphthalenyloxy)-3-(2-thienyl)propanamine oxalate] had an IC50 in the test with serotonin (5HT) uptake of 36 nM. Besides, the “percent inhibition at 1000 nM, NE” value in test [1] is 31%. In the case of `CNCCC(Oc1cccc2ccccc12)C1CCCCC1` (stereo not shown) [Example 15, N-Methyl-3-(1-naphthalenyloxy)-3-cyclohexylpropanamine oxalate], the IC50 in the test on serotonin (5HT) uptake was found to be 125 nM; in test [1], 90 nM. The like results for `Cc1ccc(OC(CCN(C)C)c2cccs2)cc1` (stereo not shown) [Example 24, N,N-Dimethyl-3-(4-methylphenoxy)-3-(2-thienyl)propanamine oxalate] were, in that order, 125 nM and 430 nM.

In the test on serotonin (5HT) uptake, `CNCCC(Oc1ccc(C(F)(F)F)cc1)c1ccsc1` (stereo not shown) [Example 22, N-Methyl-3-[4-(trifluoromethyl)phenoxy]-3-(3-thienyl)propanamine oxalate] returned an IC50 of 100 nM. The “percent inhibition at 1000 nM, NE” value in test [1] is given as 36%. For `CN(C)CCC(Oc1ccc(C(F)(F)F)cc1)c1ccco1` (stereo not shown) [Example 17, N,N-Dimethyl-3-[4-(trifluoromethyl)phenoxy]-3-(2-furanyl)propanamine oxalate], in the test on serotonin (5HT) uptake (oxalate), the IC50 turned out to be 210 nM. In test [1] (oxalate), the “percent inhibition at 1000 nM, NE” value is 5%. Consider `Cc1ccsc1C(CCN(C)C)Oc1cccc2ccccc12` (stereo not shown) [Example 4, N,N-Dimethyl-3-(1-naphthalenyloxy)-3-(3-methyl-2-thienyl)propanamine oxalate], for which the IC50 in the test with serotonin (5HT) uptake is 76 nM. In addition, in test [1], the “percent inhibition at 1000 nM, NE” value worked out at 41%. The like results for `CN(C)CCC(Oc1cccc2ccccc12)C1CCCCC1` (stereo not shown) [Example 33, N,N-Dimethyl-3-(1-naphthalenyloxy)-3-(cyclohexyl)propanamine oxalate] were, in that order, 210 nM and 47%. For the compound `CN(C)CCC(Oc1cccc2ccccc12)c1nccs1` (stereo not shown) [Example 32, N,N-Dimethyl-3-(1-naphthalenyloxy)-3-(2thiazolyl)propanamine oxalate], the half-maximal inhibitory concentration (IC50) is 50 nM in the test on serotonin (5HT) uptake and 510 nM in test [1].

`CNCCC(Oc1cccc2ccccc12)c1cccs1` (stereo not shown) [Example 2, N-Methyl-3-(1-naphthalenyloxy)-3-(2-thienyl)propanamine oxalate]: in the test with serotonin (5HT) uptake, the IC50 turned out to be […]. `CN(C)CCC(Oc1ccc(C(F)(F)F)c2ccccc12)c1cccs1` (stereo not shown) [Example 6, N,N-Dimethyl-3-[4-(trifluoromethyl)-1naphthalenyloxy]-3-(2-thienyl)propanamine oxalate] registered an IC50 in the test with serotonin (5HT) uptake of 114 nM. Besides, the “percent inhibition at 1000 nM, NE” value in test [1] is listed as 9%. Consider `CNCCC(Oc1ccc(Cl)cc1)c1cccs1` (stereo not shown) [Example 27, N-Methyl-3-(4-chlorophenoxy)-3-(2-thienyl)propanamine oxalate], for which the IC50 in the test with serotonin (5HT) uptake is 91 nM; in test [1], 59 nM.

`CNCCC(Oc1ccc(C(F)(F)F)c2ccccc12)c1cccs1` (stereo not shown) [Example 7, N-Methyl-3-[4-(trifluoromethyl)-1-naphthalenyloxy]-3-(2-thienyl)propanamineoxalate]: the IC50 in the test on serotonin (5HT) uptake was found to be 95 nM. Also, the “percent inhibition at 1000 nM, NE” value in test [1] is on record as 46%. Regarding `CN(C)CCC(Oc1cccc2ccccc12)c1cccnc1` (stereo not shown) [Example 37, N,N-Dimethyl-3-(1-naphthalenyloxy)-3-(3-pyridyl)propanamine oxalate], the half-maximal inhibitory concentration (IC50) (in the test on serotonin (5HT) uptake; in test [1]) was 315 nM throughout. As to `CNCCC(Oc1cccc2ccccc12)c1nccs1` (stereo not shown) [Example 16, N-Methyl-3-(1-naphthalenyloxy)-3-(2-thiazolyl)propanamine oxalate], the results for the IC50 (in the test with serotonin (5HT) uptake; in test [1]) were 70 nM and 205 nM, respectively.

Take `CN(C)CCC(Oc1ccc(Cl)cc1)c1cccs1` (stereo not shown) [Example 25, N,N-Dimethyl-3-(4-chlorophenoxy)-3-(2-thienyl)propanamine oxalate]: the values for the IC50 (in the test with serotonin (5HT) uptake; in test [1]) were 170 nM and 820 nM, respectively. In the same order, the values of `CNCCC(Oc1cccc2ccccc12)c1ccsc1` (stereo not shown) [Example 9, N-Methyl-3-(1-naphthalenyloxy)-3-(3-thienyl)propanamine oxalate] are 18 nM and 69 nM.

Take `CN(C)CCC(Oc1ccc(C(F)(F)F)cc1)c1ccsc1` (stereo not shown) [Example 19, N,N-Dimethyl-3-[4-(trifluoromethyl)phenoxy]-3-(3-thienyl)propanamine oxalate]: half-maximal inhibition with serotonin (5HT) uptake (IC50) was put at 125 nM. In test [1], the “percent inhibition at 1000 nM, NE” value is 17%. With `CN(C)CCC(Oc1cccc2ccccc12)c1ccco1` (stereo not shown) [Example 30, N,N-Dimethyl-3-(1-naphthalenyloxy)-3-(2furanyl)propanamine oxalate], the IC50 was determined as 11 nM in the test on serotonin (5HT) uptake and 30 nM in test [1].

Turning to `CN(C)CCC(Oc1cccc2ccccc12)c1cccs1` (stereo not shown) [Example 1, N,N-Dimethyl-3-(1-naphthalenyloxy)-3-(2-thienyl)propanamine oxalate], the IC50 in the test with serotonin (5HT) uptake is 13 nM; in test [1], 600 nM. The like results for `CNCCC(Oc1cccc2ccccc12)c1ccco1` (stereo not shown) [Example 31, N-Methyl-3-(1-naphthalenyloxy)-3-(2-furanyl)propanamine oxalate] were, in that order, 20 nM and 22.7 nM.

In the case of `CNCCC(Oc1cccc2ccccc12)c1cccs1` (single isomer, unassigned; (-)) [Example 39, (-)-N-methyl-3-(1-naphthalenyloxy)-3-(2-thienyl)propanamine oxalate], the IC50 in the test on serotonin (5HT) uptake (oxalate) is […]; in test [1] (oxalate) it was 34 nM.

By IC50 is commonly meant the concentration needed to halve the response being measured. Read a low IC50 as higher potency.
